In ChEMBL document CHEMBL4732079, “Design, synthesis and antitumor evaluation of new 1,8-naphthalimide derivatives targeting nuclear DNA” (Eur J Med Chem, 2021):

Experiments:
MGC-803 [1] = assay: Antiproliferative activity against human MGC-803 cells by MTT assay; assay type: functional, cell-based
T-24 = assay: Antiproliferative activity against human T-24 cells by MTT assay; assay type: functional, cell-based
SMMC-7721 = assay: Antiproliferative activity against human SMMC-7721 cells by MTT assay; assay type: functional, cell-based
A549 = assay: cells; conditions: Homo sapiens
Description: Antiproliferative activity against human A549 cells by MTT assay

SK-OV-3 = assay: Antiproliferative activity against human SK-OV-3 cells by MTT assay; assay type: functional, cell-based
MGC-803 [2] = assay: Antitumor activity against human MGC-803 cells xenografted in BALB/c nude mice assessed as tumor increment rate at 5 mg/kg, ip measured after 21 days relative to control; assay type: functional; conditions: time 21 day
MGC-803 [3] = assay: Antitumor activity against human MGC-803 cells xenografted in BALB/c nude mice assessed as tumor inhibitory rate at 5 mg/kg, ip measured after 21 days relative to control; assay type: functional; conditions: Mus musculus, MGC-803, ip, 504 h, time 21 day

Compound	IC50 (MGC-803 [1]) [µM]	IC50 (T-24) [µM]	IC50 (SMMC-7721) [µM]	IC50 (A549) [µM]	IC50 (SK-OV-3) [µM]	T/C (MGC-803 [2]) [%]	inhibition in vivo at 5 mg/kg (MGC-803 [3]) [%]
O=C(c1ccccc1)N1CCN(c2c([N+](=O)[O-])cc3c4c(cccc24)C(=O)N(Cc2ccc(Cl)cc2)C3=O)CC1	19.9	20.9	13	47.7	15.9		
O=C1c2cccc3c(N4CCN(C(=S)SCc5ccccc5)CC4)c([N+](=O)[O-])cc(c23)C(=O)N1Cc1ccc(Cl)cc1	20.7	10.3	8.83	40	29.7		
O=C1c2cccc3c(N4CCN(C(=S)SCc5ccccc5)CC4)c([N+](=O)[O-])cc(c23)C(=O)N1Cc1ccccc1	21.7	13.1	13.5	> 50	34.2		
CC(C)(C)OC(=O)N1CCN(c2c([N+](=O)[O-])cc3c4c(cccc24)C(=O)N(CCc2ccc4c(c2)OCO4)C3=O)CC1	25.2	9.71	14.4	16.5	7.48		
COc1ccc(CN2C(=O)c3cccc4c(N5CCN(S(=O)(=O)c6ccc(C)cc6)CC5)c([N+](=O)[O-])cc(c34)C2=O)cc1	16.3	14.1	30.2	26.9	24.1		
CNCCCN1C(=O)c2cccc3c(N4CCN(C(=O)OC(C)(C)C)CC4)c([N+](=O)[O-])cc(c23)C1=O	6.44	3.05	5.91	7.52	8.65		
O=C1c2cccc3c(N4CCN(C(=S)SCc5ccccc5)CC4)c([N+](=O)[O-])cc(c23)C(=O)N1CCc1ccc2c(c1)OCO2	20.7	9.16	12.9	33.4	44.8		
O=C(c1ccccc1)N1CCN(c2c([N+](=O)[O-])cc3c4c(cccc24)C(=O)N(CCc2ccc(O)c(O)c2)C3=O)CC1	9.31	14.6	19.7	22.5	19.9		
Cc1ccc(S(=O)(=O)N2CCN(c3c([N+](=O)[O-])cc4c5c(cccc35)C(=O)N(Cc3ccco3)C4=O)CC2)cc1	29.9	8.43	14.7	47.2	29.5		
CN(C)CCN1C(=O)c2cccc3c(N4CCN(C(=S)SCc5ccccc5)CC4)c([N+](=O)[O-])cc(c23)C1=O	6.08	2.06	3.17	1.98	2.4		
O=c1[nH]cc(F)c(=O)[nH]1 [FLUOROURACIL]	34.9	40.1	15.3				
O=C1c2cccc3c(N4CCN(C(=S)SCc5ccccc5)CC4)c([N+](=O)[O-])cc(c23)C(=O)N1Nc1ccccc1	18.4	13.3	14.8	> 50	> 50		
O=C(c1ccccc1)N1CCN(c2c([N+](=O)[O-])cc3c4c(cccc24)C(=O)N(CCO)C3=O)CC1	12.9	9.93	12	31.3	16.8		
COc1ccc(CN2C(=O)c3cccc4c(N5CCN(C(=S)SCc6ccccc6)CC5)c([N+](=O)[O-])cc(c34)C2=O)cc1	31.1	10.8	17.9	38.6	27		
O=C1c2cccc3c(N4CCN(C(=S)SCc5ccccc5)CC4)c([N+](=O)[O-])cc(c23)C(=O)N1CCO	15.4	13.2	14.3	> 50	31.4		
O=C1c2cccc3c(N4CCN(C(=S)SCc5ccccc5)CC4)c([N+](=O)[O-])cc(c23)C(=O)N1Cc1ccco1	21.2	18.4	11.6	44.5	40.4		

Compound	IC50 (MGC-803 [1]) [µM]	IC50 (T-24) [µM]	IC50 (SMMC-7721) [µM]	IC50 (A549) [µM]	IC50 (SK-OV-3) [µM]	T/C (MGC-803 [2]) [%]	inhibition in vivo at 5 mg/kg (MGC-803 [3]) [%]
CN(C)CCN1C(=O)c2cccc3cc(N)cc(c23)C1=O [AMONAFIDE]	9.06	5.01	6.93	7.94	6.31	34.4	65.5
Cc1ccc(S(=O)(=O)N2CCN(c3c([N+](=O)[O-])cc4c5c(cccc35)C(=O)N(CCc3ccc(O)c(O)c3)C4=O)CC2)cc1	21.8	11.4	12.3	24.7	20.4		
O=C1c2cccc3c(N4CCN(C(=S)SCc5ccccc5)CC4)c([N+](=O)[O-])cc(c23)C(=O)N1CCc1ccc(O)c(O)c1	25.4	10.7	22.5	17.4	26.3		
Cc1ccc(S(=O)(=O)N2CCN(c3c([N+](=O)[O-])cc4c5c(cccc35)C(=O)N(CCc3ccc5c(c3)OCO5)C4=O)CC2)cc1	12.8	9.17	16.6	41.8	28.9		
Cc1ccc(S(=O)(=O)N2CCN(c3c([N+](=O)[O-])cc4c5c(cccc35)C(=O)N(Nc3ccccc3)C4=O)CC2)cc1	16.2	10.7	14.4	38.4	23.2		
CNCCCN1C(=O)c2cccc3c(N4CCN(C(=O)c5ccccc5)CC4)c([N+](=O)[O-])cc(c23)C1=O	8.22	4.65	4.73	6.66	4.11		
Cc1ccc(S(=O)(=O)N2CCN(c3c([N+](=O)[O-])cc4c5c(cccc35)C(=O)N(Cc3ccccc3)C4=O)CC2)cc1	10.8	12.7	14.8	42.9	38.2		
CC(C)(C)OC(=O)N1CCN(c2c([N+](=O)[O-])cc3c4c(cccc24)C(=O)N(CCO)C3=O)CC1	27.4	12.8	13.9	45.6	13.4		
CC(C)(C)OC(=O)N1CCN(c2c([N+](=O)[O-])cc3c4c(cccc24)C(=O)N(CCc2ccc(O)c(O)c2)C3=O)CC1	8.77	11	27.5	42.1	8.87		
CCCCN1C(=O)c2cccc3c(N4CCN(S(=O)(=O)c5ccc(C)cc5)CC4)c([N+](=O)[O-])cc(c23)C1=O	21.3	10.9	12.5	36.8	33.6		
CN(C)CCN1C(=O)c2cccc3cc([N+](=O)[O-])cc(c23)C1=O [MITONAFIDE]	6.8	1.11	3.22	0.012	1.38		
Cc1ccc(S(=O)(=O)N2CCN(c3c([N+](=O)[O-])cc4c5c(cccc35)C(=O)N(CCO)C4=O)CC2)cc1	16	6.8	15.8	20.8	12.2		
CN(C)CCN1C(=O)c2cccc3c(N4CCN(C(=O)OC(C)(C)C)CC4)c([N+](=O)[O-])cc(c23)C1=O	1.33	0.83	1.05	1.08	0.65		
CC(C)(C)OC(=O)N1CCN(c2c([N+](=O)[O-])cc3c4c(cccc24)C(=O)N(Cc2ccc(Cl)cc2)C3=O)CC1	16.1	9.52	7.76	40.4	12.7		
Cc1ccc(S(=O)(=O)N2CCN(c3c([N+](=O)[O-])cc4c5c(cccc35)C(=O)N(Cc3ccc(Cl)cc3)C4=O)CC2)cc1	28.9	6.37	17.6	> 50	30.4		
